System: anthelmintic/nematicide-resistant C. elegans mutant strains
Experiment: microbe, parasite or virus in culture
Source text: In addition to the Caenorhabditis elegans wild-type N2 strain, this work included the following C. elegans strains: CB1003 (kynu-1(e1003) X); anthelmintic-resistant strains—CB3474 (ben-1(e1880) III), CB193 (unc-29(e193) I), HY496 (bre-1(ye4) IV), RB2119 (acr-23(ok2804) V), JD608 (avr-14(ad1302) I; avr-15(ad1051) V; glc-1 (pk54) V), NM1968 (slo-1(js379) V), RP2635 (mev-1(tr355) III); benzimidazole-resistant CRISPR strains—ECA882 (ben-1(ean64) III), ECA917 (ben-1(ean98) III), ECA1075 (ben-1(ean143) III), ECA1080 (ben-1(ean148) III). This work also featured several additional free-living nematode strains: C. briggsae strain AF16, P. pacificus strain PS312, and P. hermaphrodita strain B178. The four CRISPR-generated benzimidazole-resistant C. elegans mutants were generously provided by Prof. Erik Andersen (Johns Hopkins University); PS312 and B178 were generously provided by Prof. Peter Roy (University of Toronto); all other strains were obtained from the Caenorhabditis Genetics Center (CGC, University of Minnesota). All strains were cultured and propagated at 20 °C on NGM (nematode growth medium) agar plates seeded with E. coli OP50 (Stiernagle, 2006)[56].
Liquid development and viability assays were adapted from a previously established chemical screening protocol (Burns et al.)[24]. In brief, a saturated culture of E. coli HB101 was concentrated 2-fold in liquid NGM and 40 μL of this suspension was distributed to each well of a 96-well flat-bottom culture plate. 0.5 μL chemical solution (or DMSO alone) was added to each well (1% DMSO v/v) using either a multi-channel pipette or a pinning tool (V&P Scientific). L1 worms synchronized from an embryo preparation performed the day prior were diluted to a concentration of ~2 worms/μL in M9 buffer; 10 μL worm suspension was then added to each well. Culture plates were sealed with parafilm and placed in a plastic container lined with wet paper towels to prevent evaporation. Containers were then incubated for 6 days at 20 °C with shaking at 165 rpm. Following incubation, 300 μL M9 was added to each well to decrease the turbidity of the HB101-NGM suspension. Single images of each microplate well were then taken on a Nikon Ti Eclipse inverted microscope (Nikon NIS Elements AR). Images were processed using Python scripts to isolate worm-associated pixels from background. Scores of worm development and viability were determined as the sum of worm-associated pixels in each well. Development/viability scores for each well were divided by the development /viability scores for the corresponding DMSO controls, resulting in a relative viability value for each chemical. At least three biological replicates were performed for each dose-response experiment; relative viability values were averaged across replicates.
Supplementary Table 2. Sensitivity of anthelmintic/nematicide-resistant strains to Class A, B, and C
benzimidazole complex I inhibitors.
LC50s were estimated from fitted dose-
response curves; all dose response data are the mean of at least three biological replicates.
Supplementary Table 2. Davie et al.

[1] = CB3474 G104D (ben-1), 1 µM, score 0-1 relative to DMSO, values >1 set to 1
[2] = CB3474 G104D (ben-1), 2 µM, score 0-1 relative to DMSO, values >1 set to 1
[3] = CB3474 G104D (ben-1), 3.9 µM, score 0-1 relative to DMSO, values >1 set to 1
[4] = CB3474 G104D (ben-1), 15.6 µM, score 0-1 relative to DMSO, values >1 set to 1
[5] = CB3474 G104D (ben-1), 31.3 µM, score 0-1 relative to DMSO, values >1 set to 1
[6] = CB3474 G104D (ben-1), 62.5 µM, score 0-1 relative to DMSO, values >1 set to 1
[7] = ECA917 F200Y (ben-1), 1 µM, score 0-1 relative to DMSO, values >1 set to 1
[8] = ECA917 F200Y (ben-1), 2 µM, score 0-1 relative to DMSO, values >1 set to 1
[9] = ECA917 F200Y (ben-1), 3.9 µM, score 0-1 relative to DMSO, values >1 set to 1
[10] = ECA917 F200Y (ben-1), 15.6 µM, score 0-1 relative to DMSO, values >1 set to 1
[11] = ECA1075 F167Y (ben-1), 1 µM, score 0-1 relative to DMSO, values >1 set to 1
[12] = ECA1075 F167Y (ben-1), 2 µM, score 0-1 relative to DMSO, values >1 set to 1
[13] = ECA1075 F167Y (ben-1), 3.9 µM, score 0-1 relative to DMSO, values >1 set to 1
[14] = ECA1075 F167Y (ben-1), 15.6 µM, score 0-1 relative to DMSO, values >1 set to 1
[15] = ECA1080 E198A (ben-1), 1 µM, score 0-1 relative to DMSO, values >1 set to 1
[16] = ECA1080 E198A (ben-1), 2 µM, score 0-1 relative to DMSO, values >1 set to 1
[17] = ECA1080 E198A (ben-1), 3.9 µM, score 0-1 relative to DMSO, values >1 set to 1
[18] = ECA1080 E198A (ben-1), 15.6 µM, score 0-1 relative to DMSO, values >1 set to 1
[19] = ECA1080 E198A (ben-1), 31.3 µM, score 0-1 relative to DMSO, values >1 set to 1

| SMILES | C. elegans L1 relative development & viability [1] | C. elegans L1 relative development & viability [2] | C. elegans L1 relative development & viability [3] | C. elegans L1 relative development & viability [4] | C. elegans L1 relative development & viability [5] | C. elegans L1 relative development & viability [6] | C. elegans L1 relative development & viability [7] | C. elegans L1 relative development & viability [8] | C. elegans L1 relative development & viability [9] | C. elegans L1 relative development & viability [10] | C. elegans L1 relative development & viability [11] | C. elegans L1 relative development & viability [12] | C. elegans L1 relative development & viability [13] | C. elegans L1 relative development & viability [14] | C. elegans L1 relative development & viability [15] | C. elegans L1 relative development & viability [16] | C. elegans L1 relative development & viability [17] | C. elegans L1 relative development & viability [18] | C. elegans L1 relative development & viability [19] | also measured |
| --- | --- | --- | --- | --- | --- | --- | --- | --- | --- | --- | --- | --- | --- | --- | --- | --- | --- | --- | --- | --- |
| c1ccc2[nH]c(-c3cscn3)nc2c1 [Thiabendazole] | 1.000 | 1.000 | 1.000 | 1.000 | 1.000 | 1.000 | 1.000 | 1.000 | 1.000 | 1.000 | 1.000 | 1.000 | 1.000 | 1.000 | 1.000 | 1.000 | 1.000 | 1.000 | 1.000 | C. elegans L1 relative development & viability (CB3474 G104D (ben-1), 125 µM, score 0-1 relative to DMSO, values >1 set to 1): 1.000; C. elegans L1 relative development & viability (CB3474 G104D (ben-1), 250 µM, score 0-1 relative to DMSO, values >1 set to 1): 1.000; C. elegans L1 relative development & viability (CB3474 G104D (ben-1), 500 µM, […]): 0.035; C. elegans L1 relative development & viability (ECA917 F200Y (ben-1), 31.3 µM, score 0-1 relative to DMSO, values >1 set to 1): 1.000; C. elegans L1 relative development & viability (ECA917 F200Y (ben-1), 62.5 µM, score 0-1 relative to DMSO, values >1 set to 1): 1.000; C. elegans L1 relative development & viability (ECA917 F200Y (ben-1), 125 µM, score 0-1 relative to DMSO, values >1 set to 1): 1.000; C. elegans L1 relative development & viability (ECA917 F200Y (ben-1), 250 µM, score 0-1 relative to DMSO, values >1 set to 1): 1.000; C. elegans L1 relative development & viability (ECA917 F200Y (ben-1), 500 µM, […]): 0.056; C. elegans L1 relative development & viability (ECA1075 F167Y (ben-1), 31.3 µM, score 0-1 relative to DMSO, values >1 set to 1): 1.000; C. elegans L1 relative development & viability (ECA1075 F167Y (ben-1), 62.5 µM, score 0-1 relative to DMSO, values >1 set to 1): 1.000; C. elegans L1 relative development & viability (ECA1075 F167Y (ben-1), 125 µM, score 0-1 relative to DMSO, values >1 set to 1): 1.000; C. elegans L1 relative development & viability (ECA1075 F167Y (ben-1), 250 µM, score 0-1 relative to DMSO, values >1 set to 1): 1.000; C. elegans L1 relative development & viability (ECA1075 F167Y (ben-1), 500 µM, […]): 0.028; C. elegans L1 relative development & viability (ECA1080 E198A (ben-1), 62.5 µM, score 0-1 relative to DMSO, values >1 set to 1): 1.000; C. elegans L1 relative development & viability (ECA1080 E198A (ben-1), 125 µM, score 0-1 relative to DMSO, values >1 set to 1): 1.000; C. elegans L1 relative development & viability (ECA1080 E198A (ben-1), 250 µM, score 0-1 relative to DMSO, values >1 set to 1): 1.000; C. elegans L1 relative development & viability (ECA1080 E198A (ben-1), 500 µM, […]): 0.041 |
| COC(=O)Nc1nc2ccc(C(=O)c3ccccc3)cc2[nH]1 [mebendazole, reference compound] | 1.000 | 1.000 | 1.000 | 1.000 | 1.000 | 1.000 | 1.000 | 1.000 | 1.000 | 1.000 | 1.000 | 1.000 | 1.000 | 1.000 | 1.000 | 1.000 | 1.000 | 1.000 | 1.000 | C. elegans L1 relative development & viability (CB3474 G104D (ben-1), 125 µM, […]): 0.918; C. elegans L1 relative development & viability (CB3474 G104D (ben-1), 250 µM, […]): 0.816; C. elegans L1 relative development & viability (ECA917 F200Y (ben-1), 31.3 µM, […]): 0.958; C. elegans L1 relative development & viability (ECA917 F200Y (ben-1), 62.5 µM, […]): 0.687; C. elegans L1 relative development & viability (ECA917 F200Y (ben-1), 125 µM, […]): 0.515; C. elegans L1 relative development & viability (ECA917 F200Y (ben-1), 250 µM, […]): 0.575; C. elegans L1 relative development & viability (ECA1075 F167Y (ben-1), 31.3 µM, […]): 0.936; C. elegans L1 relative development & viability (ECA1075 F167Y (ben-1), 62.5 µM, […]): 0.436; C. elegans L1 relative development & viability (ECA1075 F167Y (ben-1), 125 µM, […]): 0.502; C. elegans L1 relative development & viability (ECA1075 F167Y (ben-1), 250 µM, […]): 0.324; C. elegans L1 relative development & viability (ECA1080 E198A (ben-1), 62.5 µM, […]): 0.746; C. elegans L1 relative development & viability (ECA1080 E198A (ben-1), 125 µM, […]): 0.386; C. elegans L1 relative development & viability (ECA1080 E198A (ben-1), 250 µM, […]): 0.470 |

From article PMC11079024, “Identification of a family of species-selective complex I inhibitors as potential anthelmintics” (Nature Communications, 2024)
